Source: patent EP1096932B1, “ANTIHYPERTENSIVE COMBINATION OF VALSARTAN AND CALCIUM CHANNEL BLOCKER” (Novartis Pharma AG, priority 1998, dated 2000)

Tested on: diabetic SHRs
Assay: Survival of streptozotocin-diabetic SHRs under drug treatment
Assay type: in vivo, spontaneously hypertensive rats (SHR)
Conditions: twice daily gavage
Text: In diabetic SHRs the presence of hypertension is an important determinant of renal injury, manifesting in functional changes such as albuminuria and in ultrastructural injury. For example, diabetic SHRs show ventricular hypertrophy and develop nephropathy resulting in sudden death events. Accordingly, the use of this animal model is well-applied in the art and suitable for evaluating effects of drugs on the development of diabetic renal diseases. There is a strong need to achieve a significant increase of the survival rate by treatment of hypertension in diabetes especially in NIDDM. It is known that CCBs are not considered as first line antihypertensives e.g. in NIDDM treatment. Though some kind of reduction of blood pressure may be achieved with CCBs, they may not be indicated for the treatment of renal disorders associated with diabetes.
Diabetes is induced in SHRs aged about 6 to 8 weeks weighing about 250 to 300 g by treatment e.g. with streptozotocin. The drugs are administered by twice daily gavage. Untreated diabetic SHRs are used as control group (group 1). […] On a regular basis, besides other parameters the survival rate after 21 weeks of treatment is being monitored. In week 21 of the study, following survival rates have been determined: […]

## COc1ccc(CCN(C)CCCC(C#N)(c2ccc(OC)c(OC)c2)C(C)C)cc1OC (centres unmarked) [verapamil]
20 mg/kg of verapamil, week 21 (group 3)
  Survival Rate: 42.9%

## CCCCC(=O)N(Cc1ccc(-c2ccccc2-c2nnn[nH]2)cc1)[C@H](C(=O)O)C(C)C [valsartan, (S)-N-(1-carboxy-2-methyl-prop-1-yl)-N-pentanoyl-N-[2'(1H-tetrazol-5-yl)biphenyl-4-yl-methyl]amine]
30 mg/kg of valsartan, week 21 (group 2)
  Survival Rate: 45.9%
